# Biological target: T1, AHR (UniProt P35869)
# T1 construct: IC50
# T1 sequence (P35869 1-848): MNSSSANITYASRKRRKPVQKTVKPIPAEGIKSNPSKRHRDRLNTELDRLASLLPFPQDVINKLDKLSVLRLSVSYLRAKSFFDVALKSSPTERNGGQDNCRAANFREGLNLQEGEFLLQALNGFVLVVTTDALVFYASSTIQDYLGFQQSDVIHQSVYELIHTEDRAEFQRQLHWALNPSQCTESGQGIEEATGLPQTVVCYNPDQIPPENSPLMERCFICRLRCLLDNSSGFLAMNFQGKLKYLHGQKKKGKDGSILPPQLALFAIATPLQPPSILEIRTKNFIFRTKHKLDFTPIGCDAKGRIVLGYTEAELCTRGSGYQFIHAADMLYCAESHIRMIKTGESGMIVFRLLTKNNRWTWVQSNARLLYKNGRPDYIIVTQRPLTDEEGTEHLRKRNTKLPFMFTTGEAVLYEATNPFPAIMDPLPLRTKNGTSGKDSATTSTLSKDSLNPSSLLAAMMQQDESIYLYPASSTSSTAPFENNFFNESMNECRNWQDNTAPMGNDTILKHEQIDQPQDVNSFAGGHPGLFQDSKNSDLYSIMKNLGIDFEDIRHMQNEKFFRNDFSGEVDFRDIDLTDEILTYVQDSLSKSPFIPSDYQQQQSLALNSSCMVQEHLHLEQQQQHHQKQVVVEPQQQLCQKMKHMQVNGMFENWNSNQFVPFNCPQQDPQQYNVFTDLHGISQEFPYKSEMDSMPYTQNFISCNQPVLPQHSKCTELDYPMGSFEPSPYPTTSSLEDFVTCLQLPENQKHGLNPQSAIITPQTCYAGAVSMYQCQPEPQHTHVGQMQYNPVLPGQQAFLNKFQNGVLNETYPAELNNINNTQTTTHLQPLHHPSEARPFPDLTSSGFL
# Assay: DRE-Luciferase Reporter Assay (Alternate Method) (Example 1B)
# Type: cell-based, murine or human
# Conditions: cell line and AHR activating ligand not specified
# Method: AHR binds to Dioxin Responsive Elements (DRE) upstream of genes that it activates. One measure of AHR activity is activation of a reporter gene, such as luciferase, downstream of one or multiple DRE elements. Luciferase activity will reflect activation and inhibition of AHR in the cells expressing his reporter.
# Murine Hepa1-6 or Hepa-1c1c7 or other murine cell line with a DRE-luciferase reporter either stably or transiently transfected were plated in media in plates (96-well, 384-well or other plates) and incubated overnight at 37° C. in a CO2 incubator or compound and agonist were added at the time of plating. Likewise, human HepG2 or other human cell line with a DRE-luciferase reporter either stably or transiently transfected were plated in media in plates (96-well, 384-well or other plates) and incubated overnight at 37° C. in a CO2 incubator or compound and agonist were added at the time of plating.
# At the time that cells are plated or following incubation overnight, an AHR activating ligand, such as TCDD, kynurenine, ITE (2-(1H-indole-3-ylcarbonyl)-4-thiazolecarboxylic methyl ester), VAF347, BNF (beta-naphthoflavone), FICZ (6-formylindolo(3,2-b) carbazole or other AHR ligands, was added with or without AHR antagonist.
# Cells were incubated for 4, 15 or 24 hours or another time point and then lysed for determination of luciferase activity as a read-out of the AHR activation or inhibition. Luciferase was measured with a commercial kit such as the Promega Luciferase kit or any kit or reagents that provide the luciferin substrate for measuring luciferase activity. The level of luciferase with only activating ligand added was the maximum signal while the luciferase with no ligand was the minimum signal. IC50 values were determined as the concentration which inhibits half of the luciferase activity.
row,SMILES,IC50
1,"CC(C)c1cnn2c(NCCc3c[nH]c4c(F)cc(F)cc34)cc(-c3cncc(F)c3)nc12 [I-99, N-[2-(5,7-Difluoro-1H-indol-3-yl)ethyl]-5-(5-fluoro-3-pyridyl)-3-isopropyl-pyrazolo[1,5-a]pyrimidin-7-amine]",< 500 nM
2,"CC(C)Oc1cc(NCCc2c[nH]c3cccnc23)nc(-c2cncc(F)c2)n1 [I-104, 2-(5-Fluoro-3-pyridyl)-6-isopropoxy-N-[2-(1H-pyrrolo[3,2-b]pyridin-3-yl)ethyl]pyrimidin-4-amine]",500 to 1000 nM
3,"CC(C)c1cnn2c(NCCc3c[nH]c4cccnc34)cc(-c3cncc(F)c3)nc12 [I-110, 5-(5-Fluoro-3-pyridyl)-3-isopropyl-N-[2-(1H-pyrrolo[3,2-b]pyridin-3-yl)ethyl]pyrazolo[1,5-a]pyrimidin-7-amine]",500 to 1000 nM
4,"Fc1cncc(-c2ccnc(NCCc3c[nH]c4ccccc34)n2)c1 [I-120, 4-(5-Fluoro-3-pyridyl)-N-[2-(1H-indol-3-yl)ethyl]pyrimidin-2-amine]",> 1500 nM
5,"CC(C)c1cnn2c(N[C@@H]3CCc4[nH]c5ccccc5c4C3)nc(-c3cccc(F)c3)nc12 [I-121, (3R)—N-[2-(3-Fluorophenyl)-8-isopropyl-pyrazolo[1,5-a][1,3,5]triazin-4-yl]-2,3,4,9-tetrahydro-1H-carbazol-3-amine]",> 1500 nM
6,"CSc1nc(N[C@@H]2CCc3[nH]c4ccccc4c3C2)n2ncc(C(C)C)c2n1 [I-122, (3R)—N-(8-Isopropyl-2-methylsulfanyl-pyrazolo[1,5-a][1,3,5]triazin-4-yl)-2,3,4,9-tetrahydro-1H-carbazol-3-amine]",> 1500 nM
7,"Fc1cncc(-c2nc(N[C@@H]3CCc4[nH]c5ccccc5c4C3)n3ncc(C4CCCCC4)c3n2)c1 [I-123, (3R)—N-[8-Cyclohexyl-2-(5-fluoro-3-pyridyl)pyrazolo[1,5-a][1,3,5]triazin-4-yl]-2,3,4,9-tetrahydro-1H-carbazol-3-amine]",1000 to 1500 nM
8,"Cc1cnn2c(-c3cncc(F)c3)cc(NCCc3c[nH]c4ccccc34)nc12 [I-124, 7-(5-Fluoro-3-pyridyl)-N-[2-(1H-indol-3-yl)ethyl]-3-methyl-pyrazolo[1,5-a] pyrimidin-5-amine]",> 1500 nM
9,"Fc1cncc(-c2nc(N[C@@H]3CCc4[nH]c5ccccc5c4C3)n3ccnc3n2)c1 [I-125, (3R)—N-[2-(5-Fluoro-3-pyridyl)imidazo[1,2-a][1,3,5]triazin-4-yl]-2,3,4,9-tetrahydro-1H-carbazol-3-amine]",> 1500 nM

# Results, then the molecule that gave them:
row,IC50,SMILES
1,> 1500 nM,"CC(C)c1cnn2c(C(=O)NCc3cccc(O)c3)cc(-c3cncc(F)c3)nc12 [I-95, 5-(5-Fluoro-3-pyridyl)-N-[(3-hydroxyphenyl)methyl]-3-isopropyl-pyrazolo[1,5-a]pyrimidine-7-carboxamide]"
2,> 1500 nM,"CC(C)c1cnn2c(N[C@H](C)Cc3ccc(O)cc3)cc(-c3cncc(F)c3)nc12 [I-97a, 4-[(2R)-2-[[5-(5-Fluoro-3-pyridyl)-3-isopropyl-pyrazolo[1,5-a]pyrimidin-7-yl]amino]propyl]phenol]"
3,> 1500 nM,"CC(C)c1cnn2c(N[C@@H](C)Cc3c[nH]c4ccccc34)cc(-c3cncc(F)c3)nc12 [I-98a, 5-(5-Fluoro-3-pyridyl)-N-[(1S)-2-(1H-indol-3-yl)-1-methyl-ethyl]-3-isopropyl-pyrazolo[1,5-a]pyrimidin-7-amine]"
4,> 1500 nM,"CC(C)c1cnn2c(C(=O)NCc3ccc(O)cc3)cc(-c3cncc(F)c3)nc12 [I-100, 5-(5-Fluoro-3-pyridyl)-N-[(4-hydroxyphenyl)methyl]-3-isopropyl-pyrazolo[1,5-a]pyrimidine-7-carboxamide]"
5,< 500 nM,"Cc1cc(CCNc2cc(-c3cncc(F)c3)nc3c(C(C)C)cnn23)ccc1O [I-102, 4-[2-[[5-(5-Fluoro-3-pyridyl)-3-isopropyl-pyrazolo[1,5-a]pyrimidin-7-yl]amino]ethyl]-2-methyl-phenol]"
6,< 500 nM,"CC(C)c1cnn2c(NCCc3ccc(O)cc3)cc(-c3cncc(F)c3)nc12 [I-108, 4-[2-[[5-(5-Fluoro-3-pyridyl)-3-isopropyl-pyrazolo[1,5-a]pyrimidin-7-yl]amino]ethyl]phenol]"
